US11344588B2, “Lactobacillus plantarum CJLP17 having antiviral and immunomodulatory efficacies and composition comprising the same” (CJ CHEILJEDANG CORPORATION, priority 2018, dated 2022)

system: CJLP17 strain; assay: Antibiotic susceptibility test with antibiotic discs; assay type: cell-based, Lactobacillus plantarum; settings: antibiotic disc on CJLP17 lawn, Mueller Hinton II medium, 37° C., 24 hours
Protocol: The CJLP17 strain was inoculated into a liquid MRS medium and subjected to a static culture at 37° C. for 24 hours. The thus-cultured bacteria were soaked in sterilized cotton swabs and smeared on a solid Mueller Hinton II medium (Difco), and then antibiotic discs were placed on the medium and incubated at 37° C. for 24 hours. Ampicillin, clindamycin, gentamicin, kanamycin, erythromycin, ampicillin/sulbactam, chloramphenicol, and streptomycin discs (Oxoid, UK) were used as antibiotic discs for the antibiotic test.

First: CC1(C)S[C@@H]2[C@H](NC(=O)[C@H](N)c3ccccc3)C(=O)N2[C@H]1C(=O)O [Amp10 (Ampicillin), Ampicillin]
Second: [H]/N=C(/N)N[C@H]1[C@H](O)[C@@H](O)[C@H](O[C@@H]2O[C@@H](C)[C@](O)(C=O)[C@H]2O[C@@H]2O[C@@H](CO)[C@H](O)[C@@H](O)[C@@H]2NC)[C@@H](N/C(N)=N\[H])[C@@H]1O [DA2 (Streptomycin), Streptomycin]
The “Radius of Growth Inhibition Area Centered Around Antibiotics” value of the first is higher: 7.5 mm for the first, 4.5 mm for the second.

Going from `O=C(N[C@H](CO)[C@H](O)c1ccc([N+](=O)[O-])cc1)C(Cl)Cl` [S10 (Chloramphenicol), Chloramphenicol] to `CC[C@H]1OC(=O)[C@H](C)[C@@H](O[C@H]2C[C@@](C)(OC)[C@@H](O)[C@H](C)O2)[C@H](C)[C@@H](O[C@@H]2O[C@H](C)C[C@H](N(C)C)[C@H]2O)[C@](C)(O)C[C@@H](C)C(=O)[C@H](C)[C@@H](O)[C@]1(C)O` [E15 (Erythromycin), Erythromycin], the “Radius of Growth Inhibition Area Centered Around Antibiotics” value rises from 3.5 mm to 12 mm.

“Ampicillin/Sulbactam [SAM20 (Ampicillin/Sulbactam)]” and `CCC[C@@H]1C[C@@H](C(=O)N[C@@H]([C@H]2O[C@H](SC)[C@H](O)[C@@H](O)[C@H]2O)[C@H](C)Cl)N(C)C1` [C30 (Clindamycin), Clindamycin] are the same in “Radius of Growth Inhibition Area Centered Around Antibiotics” value: 7 mm for the first, 7 mm for the second.

First: NC[C@H]1O[C@H](O[C@H]2[C@H](O)[C@@H](O[C@H]3O[C@H](CO)[C@@H](O)[C@H](N)[C@H]3O)[C@H](N)C[C@@H]2N)[C@H](O)[C@@H](O)[C@@H]1O [K30 (Kanamycin), Kanamycin]
Second: Gentamicin [CN120 (Gentamicin)]
The “Radius of Growth Inhibition Area Centered Around Antibiotics” value of the first is lower: 1.5 mm for the first, 5 mm for the second.
